Reference: ChEMBL document CHEMBL3526042, “Mechanism-based inactivation of cytochrome P450 2B6 by methadone through destruction of prosthetic heme” (Drug Metab Dispos, 2012)

What was measured:
Format in all cases: ADME
Cytochrome P450 2B6 [1] = target: T1, Cytochrome P450 2B6 (Homo sapiens, UniProt P20813); assay: Irreversible inactivation of C-terminal His4-tagged human CYP2B6 lacking 21 N-terminal residues assessed as decrease in CO difference spectrum measured after overnight dialysis at 100 uM for 15 mins by spectral analysis in presence of NADPH; settings: 0.25 h
T1 sequence (P20813 whole entry): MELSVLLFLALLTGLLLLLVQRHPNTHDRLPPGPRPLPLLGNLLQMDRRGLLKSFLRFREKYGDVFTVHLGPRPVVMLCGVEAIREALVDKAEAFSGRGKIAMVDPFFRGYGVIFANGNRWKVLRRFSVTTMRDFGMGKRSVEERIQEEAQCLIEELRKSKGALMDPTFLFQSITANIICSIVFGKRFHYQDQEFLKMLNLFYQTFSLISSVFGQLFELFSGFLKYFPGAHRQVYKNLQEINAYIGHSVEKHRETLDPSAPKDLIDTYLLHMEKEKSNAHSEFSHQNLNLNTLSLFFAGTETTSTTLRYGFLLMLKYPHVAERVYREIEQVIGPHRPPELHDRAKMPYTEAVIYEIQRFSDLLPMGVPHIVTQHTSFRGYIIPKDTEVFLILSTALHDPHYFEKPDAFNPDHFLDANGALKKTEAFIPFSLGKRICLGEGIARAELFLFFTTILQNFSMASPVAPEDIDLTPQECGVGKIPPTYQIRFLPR

Cytochrome P450 2B6 [2] = target: T1, Cytochrome P450 2B6; assay: Irreversible inactivation of C-terminal His4-tagged human CYP2B6 lacking 21 N-terminal residues assessed as decrease in enzyme catalytic activity measured after overnight dialysis at 100 uM for 15 mins by spectral analysis in presence of NADPH; settings: 0.25 h
CYP2B6 = target: T2, CYP2B6 (Homo sapiens, UniProt P20813); assay: Inactivation of C-terminal His4-tagged human CYP2B6 lacking 21 N-terminal residues assessed as decrease in enzyme catalytic activity at 100 uM for 15 mins by spectral analysis in presence of NADPH
T2 sequence (P20813 whole entry): T1 sequence (P20813 whole entry)

Cytochrome P450 2B6 [3] = target: T1, Cytochrome P450 2B6; assay: Inactivation of C-terminal His4-tagged human CYP2B6 lacking 21 N-terminal residues expressed in Escherichia coli C41 (DE3) assessed as decreases in fluorescence intensity of 7-hydroxy-4-trifluoromethylcoumarin up to 30 mins at 37 degC; settings: 0.5 h
Cytochrome P450 2B6 [4] = target: T1, Cytochrome P450 2B6; assay: Inactivation of C-terminal His4-tagged human CYP2B6 lacking 21 N-terminal residues expressed in Escherichia coli C41 (DE3) assessed as decreases in fluorescence intensity of 7-hydroxy-4-trifluoromethylcoumarin at 5 to 100 uM at 37 degC; settings: TDE = time-dependent effect

## CCC(=O)C(CC(C)N(C)C)(c1ccccc1)c1ccccc1 (racemic) [METHADONE]
Cytochrome P450 2B6 [1]
  inhibition (INH): Active
Cytochrome P450 2B6 [2]
  inhibition (INH): Active
CYP2B6
  inhibition at 0.25 h, 100 µM: 58%
Cytochrome P450 2B6 [3]
  inhibition (INH): Dose-dependent effect
Cytochrome P450 2B6 [4]
  inhibition (INH): tde
